Data as given in the supplement of paper PMC4862054.

What was measured:
Conditions in all cases: incubation time: 72 h
BT-549 [1] = assay: normalised viability (% of control), CellTiter-Blue; higher = more viable cells (100 = DMSO, 0 = benzethonium chloride kill control)
Procedure: (§1)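 DSRT, CellTiter-Blue viability, 72 h incubation. Signal is normalised to DMSO and benzethonium chloride controls. Value is the normalised response at dose 1.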

BT-474 [2] = assay: as above
Procedure: as §1

Hs578T [3] = assay: as above
Procedure: as §1

MDA-MB-231 [4] = assay: as above
Procedure: as §1

DU-4475 [5] = assay: as above
Procedure: as §1

SK-BR-3 [6] = assay: as above
Procedure: as §1

MDA-MB-436 [7] = assay: as above
Procedure: as §1

MFM-223 [8] = assay: as above
Procedure: as §1

HCC1599 [9] = assay: as above
Procedure: as §1

HCC1143 [10] = assay: as above
Procedure: as §1

CAL-85-1 [11] = assay: as above
Procedure: as §1

HCC1937 [12] = assay: as above
Procedure: as §1

CAL-148 [13] = assay: as above
Procedure: as §1

MDA-MB-468 [14] = assay: as above
Procedure: as §1

CAL-51 [15] = assay: as above
Procedure: as §1

MDA-MB-453 [16] = assay: as above
Procedure: as §1

CAL-120 [17] = assay: as above
Procedure: as §1

HDQ-P1 [18] = assay: as above
Procedure: as §1

BT-549 [19] = assay: normalised response (% of control), CellTiter-Glo; higher = more viable cells (100 = DMSO, 0 = benzethonium chloride kill control)
Summary of the method: (§2)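 Breast cancer cell lines were exposed for 72 h in 384-well plates to compound at 5 concentrations, 10-fold apart, covering a 10,000-fold range fixed for each compound. Plates were read for CellTox Green fluorescence and CellTiter-Glo luminescence and normalised to 0.1 % DMSO (100) and a positive kill control (0). Each value is the normalised signal at one concentration of the series.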

BT-474 [20] = assay: as above
Summary of the method: as §2

Hs578T [21] = assay: as above
Summary of the method: as §2

MDA-MB-231 [22] = assay: as above
Summary of the method: as §2

DU-4475 [23] = assay: as above
Summary of the method: as §2

SK-BR-3 [24] = assay: as above
Summary of the method: as §2

MDA-MB-436 [25] = assay: as above
Summary of the method: as §2

MFM-223 [26] = assay: as above
Summary of the method: as §2

HCC1599 [27] = assay: as above
Summary of the method: as §2

HCC1143 [28] = assay: as above
Summary of the method: as §2

CAL-85-1 [29] = assay: as above
Summary of the method: as §2

HCC1937 [30] = assay: as above
Summary of the method: as §2

CAL-148 [31] = assay: as above
Summary of the method: as §2

MDA-MB-468 [32] = assay: as above
Summary of the method: as §2

CAL-51 [33] = assay: as above
Summary of the method: as §2

MDA-MB-453 [34] = assay: as above
Summary of the method: as §2

CAL-120 [35] = assay: as above
Summary of the method: as §2

HDQ-P1 [36] = assay: as above
Summary of the method: as §2

MCF-10A = assay: as above
Summary of the method: as §2

| SMILES | normalised viability (BT-549 [1]) | normalised viability (BT-474 [2]) | normalised viability (Hs578T [3]) | normalised viability (MDA-MB-231 [4]) | normalised viability (DU-4475 [5]) | normalised viability (SK-BR-3 [6]) | normalised viability (MDA-MB-436 [7]) | normalised viability (MFM-223 [8]) | normalised viability (HCC1599 [9]) | normalised viability (HCC1143 [10]) | normalised viability (CAL-85-1 [11]) | normalised viability (HCC1937 [12]) | normalised viability (CAL-148 [13]) | normalised viability (MDA-MB-468 [14]) | normalised viability (CAL-51 [15]) | normalised viability (MDA-MB-453 [16]) | normalised viability (CAL-120 [17]) | normalised viability (HDQ-P1 [18]) | normalised response (BT-549 [19]) | normalised response (BT-474 [20]) | normalised response (Hs578T [21]) | normalised response (MDA-MB-231 [22]) | normalised response (DU-4475 [23]) | normalised response (SK-BR-3 [24]) | normalised response (MDA-MB-436 [25]) | normalised response (MFM-223 [26]) | normalised response (HCC1599 [27]) | normalised response (HCC1143 [28]) | normalised response (CAL-85-1 [29]) | normalised response (HCC1937 [30]) | normalised response (CAL-148 [31]) | normalised response (MDA-MB-468 [32]) | normalised response (CAL-51 [33]) | normalised response (MDA-MB-453 [34]) | normalised response (CAL-120 [35]) | normalised response (HDQ-P1 [36]) | normalised response (MCF-10A) |
| --- | --- | --- | --- | --- | --- | --- | --- | --- | --- | --- | --- | --- | --- | --- | --- | --- | --- | --- | --- | --- | --- | --- | --- | --- | --- | --- | --- | --- | --- | --- | --- | --- | --- | --- | --- | --- | --- |
| O=P1(N(CCCl)CCCl)NCCCO1 (stereo unspecified) [Cyclophosphamide] (4 nM) | 93.2% | 97% | 102% | 96.9% | 120% | 101% | 110% | 85.1% | 81.6% | 96.8% | 88.2% | 82.9% | 119% | 98.9% | 105% | 104% | 87.3% | 107% | 98.5% | 93.9% | 101% | 96.9% | 103% | 110% | 94% | 105% | 107% | 100% | 97.4% | 96.7% | 99.6% | 102% | 81.2% | 115% | 93.4% | 97.7% | 111% |
| C=C1C[C@@H]2[C@H](CC[C@]3(C)C(=O)CC[C@@H]23)[C@@]2(C)C=CC(=O)C=C12 [Exemestane] (1 nM) | 114% | 81.5% | 112% | 93.5% | 90.9% | 91.5% | 95.2% | 88.7% | 84.5% | 85.9% | 88.2% | 102% | 89.2% | 117% | 95.2% | 99.2% | 86.5% | 100% | 91.6% | 97.6% | 106% | 105% | 106% | 107% | 134% | 108% | 112% | 102% | 97.2% | 93.6% | 98.6% | 101% | 88.6% | 108% | 101% | 101% | 112% |
| O=C(Nc1ccncc1)C(=O)c1cn(Cc2ccc(Cl)cc2)c2ccccc12 [Indibulin] (1 nM) | 100% | 104% | 111% | 119% | 121% | 102% | 161% | 97% | 109% | 95.7% | 98.9% | 95.8% | 111% | 102% | 106% | 103% | 92.1% | 77.9% | 104% | 103% | 100% | 102% | 109% | 110% | 103% | 107% | 113% | 97.2% | 106% | 100% | 109% | 103% | 59.7% | 113% | 99.1% | 106% | 101% |
| NC(=O)c1ccc(I)c([N+](=O)[O-])c1 [Iniparib] (1 nM) | 113% | 92.8% | 116% | 98.9% | 87.6% | 92.1% | 108% | 103% | 87.8% | 97.1% | 86% | 130% | 93.2% | 99.1% | 95% | 94.5% | 85.1% | 104% | 108% | 83.2% | 90.9% | 90.9% | 93.8% | 76.7% | 87.1% | 84.2% | 101% | 87.8% | 94.6% | 93.5% | 83.8% | 94.8% | 128% | 86.2% | 96.5% | 92.5% | 77.3% |
| Oc1ccc2c(c1)CC[C@H](c1ccccc1)[C@@H]2c1ccc(OCCN2CCCC2)cc1 [Lasofoxifene] (0.1 nM) | 114% | 107% | 96.6% | 90.2% | 93.1% | 97.1% | 102% | 89.1% | 92.2% | 76.4% | 83.1% | 80.3% | 115% | 99.4% | 104% | 95% | 83.3% | 87% | 97.1% | 106% | 99.6% | 106% | 102% | 113% | 99.2% | 103% | 104% | 104% | 95.4% | 100% | 109% | 106% | 86.3% | 115% | 107% | 104% | 109% |
| Cc1ccc(NC(=O)c2ccc(CN3CCN(C)CC3)cc2)cc1Nc1nc(-c2cccnc2)cs1 [Masitinib] (1 nM) | 119% | 102% | 109% | 93.4% | 102% | 93.9% | 91.7% | 96.8% | 92.2% | 89.9% | 92.5% | 72.1% | 86.5% | 110% | 100% | 98.4% | 79.2% | 84.1% | 103% | 96.4% | 100% | 97.9% | 103% | 104% | 100% | 102% | 119% | 100% | 98.7% | 105% | 101% | 114% | 98.9% | 110% | 95.8% | 100% | 96.6% |
| O=C(Nc1cccnc1)N1CCC(Cc2cccc(Oc3ccc(C(F)(F)F)cn3)c2)CC1 [PF-3845] (1 nM) | 111% | 70.3% | 135% | 114% | 92.1% | 123% | 99.8% | 91.9% | 98.9% | 92.8% | 89% | 91.6% | 106% | 104% | 98.4% | 103% | 86.7% | 145% | 107% | 98.6% | 106% | 110% | 95.8% | 113% | 105% | 110% | 95.8% | 108% | 101% | 98.4% | 114% | 97.9% | 89.8% | 117% | 107% | 103% | 113% |
| Cc1[nH]c2ccccc2c1CCNCc1ccc(/C=C/C(=O)NO)cc1 [Panobinostat] (0.1 nM) | 108% | 102% | 100% | 109% | 111% | 97.2% | 109% | 104% | 116% | 104% | 104% | 104% | 106% | 106% | 110% | 108% | 102% | 100% | 99.5% | 101% | 91.8% | 105% | 99.7% | 95.9% | 98.9% | 99.5% | 98.6% | 100% | 102% | 94.7% | 105% | 94.4% | 130% | 103% | 107% | 98.2% | 96.2% |
